# Measurements reported in patent US20220016215A1, “GIP RECEPTOR AGONIST PEPTIDE COMPOUNDS AND USES THEREOF” (TAKEDA PHAARMACEUTICAL COMPANY LIMITED, priority 2018, published 2022).
# Marks after values point to notes of the source that are not given here. Non-standard residues stand in square brackets, D forms with d. Groups on a side chain read outwards from the residue. No end group written: not given here. *: point of attachment. C15 diacid = O=C(O)CCCCCCCCCCCCCC(=O)*; Palmitoyl = CCCCCCCCCCCCCCCC(=O)*; Aib = CC(C)(N)C(=O)O
# T1: human GIPR (human, UniProt P48546 22-466)
# T1 sequence (looked up): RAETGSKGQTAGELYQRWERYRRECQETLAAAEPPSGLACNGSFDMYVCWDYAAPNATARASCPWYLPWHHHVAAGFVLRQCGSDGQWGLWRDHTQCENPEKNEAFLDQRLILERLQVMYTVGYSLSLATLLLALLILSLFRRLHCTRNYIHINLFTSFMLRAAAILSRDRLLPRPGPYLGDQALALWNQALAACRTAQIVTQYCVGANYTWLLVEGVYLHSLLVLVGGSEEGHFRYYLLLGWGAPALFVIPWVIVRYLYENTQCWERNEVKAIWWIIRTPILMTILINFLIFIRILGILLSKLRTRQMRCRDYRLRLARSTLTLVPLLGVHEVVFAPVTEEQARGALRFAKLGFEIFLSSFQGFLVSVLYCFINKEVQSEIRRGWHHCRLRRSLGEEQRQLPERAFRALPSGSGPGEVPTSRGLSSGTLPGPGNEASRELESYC
# Columns and labels:
# [1] = test system: morphine (0.6 mg/kg, s.c.)-induced emesis in ferrets; test: Morphine-induced acute emetic model in male ferrets; type: in vivo, ferret; conditions: for Emesis: Duration / Emesis: Frequency / Emesis: No. of animals (responder/used) / Fidget: Duration / Fidget: Frequency / Fidget: No. of animals (responder/used) / Licking: Duration / Licking: Frequency / Licking: No. of animals (responder/used) / Retching: Duration / Retching: Frequency / Retching: No. of animals (responder/used) / Vomiting: Duration / Vomiting: Frequency / Vomiting: No. of animals (responder/used) / Emesis: Latency / Fidget: Latency / Licking: Latency / Retching: Latency / Vomiting: Latency: morphine 0.6 mg/kg s.c. 0.5 h after drug, 106-[…] s.c. (30 nmol/kg); for Emesis: Latency / Fidget: Latency / Licking: Latency / Retching: Latency / Vomiting: Latency: non-responders counted as 30 min; for Attenuation of morphine-induced emesis (in words) / Comment: Anti-Emetic Activity (inhibition) on morphine-induced emesis: male ferrets; for Attenuation of morphine-induced emesis (in words): 30 nmol/kg s.c. 30 minutes before morphine 0.6 mg/kg s.c.; for Comment: Anti-Emetic Activity (inhibition) on morphine-induced emesis: summary of the morphine experiments
# Description: Example 6—In-Vivo Effect of GIP Receptor Agonist Peptides on Emesis in Morphine Induced Emesis Model in Live Male Ferrets
# Effect of subcutaneously administered GIP receptor agonist peptide in morphine-induced acute emetic model.
# To evaluate the antiemetic effect, the GIP receptor agonist peptides other than natural human GIP were subcutaneously administered into male ferrets 30 minutes before morphine administration. […]. Up to 60 minutes after morphine administration, the condition of the ferrets was monitored to record the frequencies and time points of abdominal contraction motions, vomiting behaviors, licking with the tongue, and fidgety behavior occurring
# Effects of Subcutaneously Administered GIP Receptor Agonist Peptides in Morphine-Induced Acute Emetic Model
# 30 nmol/kg of Compounds 3 and 5 were dissolved with a vehicle (0.09 w/v % tween 80/10% DMSO/saline), respectively, to prepare test solutions. […] of the test solutions and the vehicle were subcutaneously administered to ferrets (4 in each group), respectively. At the time of each of 4 hours, after administration, 0.6 mg/kg of morphine was subcutaneously administered. […] See results in Tables 6, 7 and 8.
# (§1) 10 nmol/kg of each compound dissolved with a vehicle (0.09 w/v % tween 80/10% DMSO/saline) respectively, to prepare test solutions. […] of the test solutions and the vehicle were subcutaneously administered to ferrets (4 in each group), respectively. At the time of each of 4 hours, or 120 hours after administration, 0.6 mg/kg of morphine was subcutaneously administered. Up to 360 minutes after morphine administration, the condition of the ferrets was monitored to record the frequencies and time points of abdominal contraction motions, vomiting behaviors, licking with the tongue, and fidgety behavior occurring.
# as §1, with “30 nmol/kg” for “10 nmol/kg”, “80/10% DMSO/saline),respectively,” for “80/10% DMSO/saline) respectively,”
# [2] = molecular target: human GLP-1R (human, UniProt P43220 24-463); test: cell-based or functional assay
# [3] = molecular target: T1, human GIPR; test: cell-based or functional assay
molecule,measurement,setting,value
Ac-(D-Tyr)AEGTFISDYSIAMDAIHQQDFVNWLLAQLys-(palmitoyl acyl fatty acid)-NH2 (Ac-[dY]AEGTFISDYSIAMDAIHQQDFVNWLLAQK(Palmitoyl)-NH2; SMILES CCCCCCCCCCCCCCCC(=O)NCCCC[C@H](NC(=O)[C@H](CCC(N)=O)NC(=O)[C@H](C)NC(=O)[C@H](CC(C)C)NC(=O)[C@H](CC(C)C)NC(=O)[C@H](Cc1c[nH]c2ccccc12)NC(=O)[C@H](CC(N)=O)NC(=O)[C@@H](NC(=O)[C@H](Cc1ccccc1)NC(=O)[C@H](CC(=O)O)NC(=O)[C@H](CCC(N)=O)NC(=O)[C@H](CCC(N)=O)NC(=O)[C@H](Cc1c[nH]cn1)NC(=O)[C@@H](NC(=O)[C@H](C)NC(=O)[C@H](CC(=O)O)NC(=O)[C@H](CCSC)NC(=O)[C@H](C)NC(=O)[C@@H](NC(=O)[C@H](CO)NC(=O)[C@H](Cc1ccc(O)cc1)NC(=O)[C@H](CC(=O)O)NC(=O)[C@H](CO)NC(=O)[C@@H](NC(=O)[C@H](Cc1ccccc1)NC(=O)[C@@H](NC(=O)CNC(=O)[C@H](CCC(=O)O)NC(=O)[C@H](C)NC(=O)[C@@H](Cc1ccc(O)cc1)NC(C)=O)[C@@H](C)O)[C@@H](C)CC)[C@@H](C)CC)[C@@H](C)CC)C(C)C)C(N)=O) [Compound 7],Ferrets in which the vomiting symptom was observed (in words),"[1]; ferrets, morphine administered 4 hours after administration",all of the 4 ferrets
CC[C@H](C)[C@H](NC(=O)[C@H](CO)NC(=O)[C@H](Cc1ccc(O)cc1)NC(=O)[C@H](CC(=O)O)NC(=O)[C@H](CO)NC(=O)[C@@H](NC(=O)[C@H](Cc1ccccc1)NC(=O)[C@@H](NC(=O)CNC(=O)[C@H](CCC(=O)O)NC(=O)[C@@H](C)NC(=O)[C@@H](N)Cc1ccc(O)cc1)[C@@H](C)O)[C@@H](C)CC)C(=O)N[C@@H](C)C(=O)N[C@@H](CCSC)C(=O)N[C@@H](CC(=O)O)C(=O)N[C@@H](CCCCN)C(=O)N[C@H](C(=O)N[C@@H](Cc1c[nH]cn1)C(=O)N[C@@H](CCC(N)=O)C(=O)N[C@@H](CCC(N)=O)C(=O)N[C@@H](CC(=O)O)C(=O)N[C@@H](Cc1ccccc1)C(=O)N[C@H](C(=O)N[C@@H](CC(N)=O)C(=O)N[C@@H](Cc1c[nH]c2ccccc12)C(=O)N[C@@H](CC(C)C)C(=O)N[C@@H](CC(C)C)C(=O)N[C@@H](C)C(=O)N[C@@H](CCC(N)=O)C(=O)N[C@@H](CCCCN)C(=O)N1CCC[C@H]1C(=O)N[C@@H](CO)C(=O)N[C@@H](CO)C(=O)NCC(=O)N[C@@H](C)C(=O)N1CCC[C@H]1C(=O)N1CCC[C@H]1C(=O)N1CCC[C@H]1C(=O)N[C@@H](CO)C(N)=O)C(C)C)[C@@H](C)CC [Compound 11],Emesis: Duration,[1]; ferrets,0.0 ± 0.0 min
same,Emesis: Frequency,[1]; ferrets,0.0 ± 0.0
same,Emesis: No. of animals (responder/used),[1]; ferrets,0/4 #
same,Fidget: Duration,[1]; ferrets,0.0 ± 0.0 min
same,Fidget: Frequency,[1]; ferrets,0.0 ± 0.0
same,Fidget: No. of animals (responder/used),[1]; ferrets,0/4
same,Licking: Duration,[1]; ferrets,0.0 ± 0.0 min
same,Licking: Frequency,[1]; ferrets,0.0 ± 0.0
same,Licking: No. of animals (responder/used),[1]; ferrets,0/4 #
same,Retching: Duration,[1]; ferrets,0.0 ± 0.0 min
same,Retching: Frequency,[1]; ferrets,0.0 ± 0.0
same,Retching: No. of animals (responder/used),[1]; ferrets,0/4 #
same,Vomiting: Duration,[1]; ferrets,0.0 ± 0.0 min
same,Vomiting: Frequency,[1]; ferrets,0.0 ± 0.0
same,Vomiting: No. of animals (responder/used),[1]; ferrets,0/4
same,Emesis: Latency,[1]; ferrets,30.0 ± 0.0 min
same,Fidget: Latency,[1]; ferrets,30.0 ± 0.0 min
same,Licking: Latency,[1]; ferrets,30.0 ± 0.0 min
same,Retching: Latency,[1]; ferrets,30.0 ± 0.0 min
same,Vomiting: Latency,[1]; ferrets,30.0 ± 0.0 min
same,Attenuation of morphine-induced emesis (in words),[1],completely attenuated
same,Comment: Anti-Emetic Activity (inhibition) on morphine-induced emesis,[1],100% inhibition
CC[C@H](C)[C@H](NC(=O)[C@H](CO)NC(=O)[C@H](Cc1ccc(O)cc1)NC(=O)[C@H](CC(=O)O)NC(=O)[C@H](CO)NC(=O)[C@@H](NC(=O)[C@H](Cc1ccccc1)NC(=O)[C@@H](NC(=O)CNC(=O)[C@H](CCC(=O)O)NC(=O)[C@@H](C)NC(=O)[C@@H](N)Cc1ccc(O)cc1)[C@@H](C)O)[C@@H](C)CC)C(=O)N[C@@H](C)C(=O)N[C@@H](CCSC)C(=O)N[C@@H](CC(=O)O)C(=O)N[C@@H](CCCCN)C(=O)N[C@H](C(=O)N[C@@H](Cc1c[nH]cn1)C(=O)N[C@@H](CCC(N)=O)C(=O)N[C@@H](CCC(N)=O)C(=O)N[C@@H](CC(=O)O)C(=O)N[C@@H](Cc1ccccc1)C(=O)N[C@H](C(=O)N[C@@H](CC(N)=O)C(=O)N[C@@H](Cc1c[nH]c2ccccc12)C(=O)N[C@@H](CC(C)C)C(=O)N[C@@H](CC(C)C)C(=O)N[C@@H](C)C(=O)N[C@@H](CCC(N)=O)C(=O)N[C@@H](CCCCN)C(=O)O)C(C)C)[C@@H](C)CC [Compound 4],Emesis: Duration,[1]; ferrets,0.0 ± 0.0 min
same,Emesis: Frequency,[1]; ferrets,0.0 ± 0.0
same,Emesis: No. of animals (responder/used),[1]; ferrets,0/4 #
same,Fidget: Duration,[1]; ferrets,0.0 ± 0.0 min
same,Fidget: Frequency,[1]; ferrets,0.0 ± 0.0
same,Fidget: No. of animals (responder/used),[1]; ferrets,0/4
same,Licking: Duration,[1]; ferrets,0.0 ± 0.0 min
same,Licking: Frequency,[1]; ferrets,0.0 ± 0.0
same,Licking: No. of animals (responder/used),[1]; ferrets,0/4 #
same,Retching: Duration,[1]; ferrets,0.0 ± 0.0 min
same,Retching: Frequency,[1]; ferrets,0.0 ± 0.0
same,Retching: No. of animals (responder/used),[1]; ferrets,0/4 #
same,Vomiting: Duration,[1]; ferrets,0.0 ± 0.0 min
same,Vomiting: Frequency,[1]; ferrets,0.0 ± 0.0
same,Vomiting: No. of animals (responder/used),[1]; ferrets,0/4
same,Emesis: Latency,[1]; ferrets,30.0 ± 0.0 min
same,Fidget: Latency,[1]; ferrets,30.0 ± 0.0 min
same,Licking: Latency,[1]; ferrets,30.0 ± 0.0 min
same,Retching: Latency,[1]; ferrets,30.0 ± 0.0 min
same,Vomiting: Latency,[1]; ferrets,30.0 ± 0.0 min
same,Attenuation of morphine-induced emesis (in words),[1],completely attenuated
same,Comment: Anti-Emetic Activity (inhibition) on morphine-induced emesis,[1],100% inhibition
YXEGTFISDYSIAMDKIHQQDFVNWLLAQKGKKNDWKHNITQK (Aib at 2; Lys-(gamma-glutamic acid)3-palmitoyl at 43; C-terminal -OH) [Compound No. 19],GLP1R pEC50,[2],8.26
Y[Aib]EGTFISDYSIALDKIK([ethylene glycol-ethylene glycol-C15 diacid])QQDFVNWLLAQRG-OH [Compound No. 25],GIPR EC50 nM (A),[3],< 0.001 nM
same,GLP1R EC50 nM (B),[2],> 1000 nM
same,GLP1R pEC50,[2],< 8
Y[dA]EGTFISDYSIAMDKIHQQDFVNWLLAQK-OH [Compound No. 4],GLP1R EC50 nM (B),[2],355 nM
same,GLP1R pEC50,[2],6.5
Y[Aib]EGTFISDYSIALDKIHQQK([ethylene glycol-ethylene glycol-C15 diacid])FVNWLLAQRG-OH [Compound No. 24],GIPR EC50 nM (A),[3],< 0.001 nM
Y[Aib]EGTFISDYSIALDKIHQQK([ethylene glycol-ethylene glycol-C15 diacid])FVNWLLAQR-NH2 [Compound No. 28],GIPR EC50 nM (A),[3],< 0.001 nM
YAEGTFISDYSIAMDKIHQQDFVNWLLAQKGKKNDWKHNIIQ (Lys-(palmitoyl acyl fatty acid acyl) at 16; C-terminal -NH2) [Compound No. 3],GIPR EC50 nM (A),[3],0.331 nM
same,GIPR pEC50,[3],9.5
same,GLP1R EC50 nM (B),[2],148 nM
same,GLP1R pEC50,[2],6.8
Y[Aib]EGTFISDYSIALDKIHQQDFVNWLLAQK([ethylene glycol-ethylene glycol-C15 diacid])G-OH [Compound No. 31],GIPR EC50 nM (A),[3],0.002 nM
Ac-YAEGTFISDYSIAMDKIHQQDFVNWLLAQKGKKNDWKHNIIQ-OH [Compound No. 1],GIPR EC50 nM (A),[3],0.01 nM
same,GIPR pEC50,[3],11
same,GLP1R EC50 nM (B),[2],302 nM
same,GLP1R pEC50,[2],6.5
Y[dA]EGTFISDYSIAMDKIHQQDFVNWLLAQKGKKNDWK(Palmitoyl)HNIIQ-NH2 [Compound No. 2],GLP1R EC50 nM (B),[2],5 nM
same,GLP1R pEC50,[2],8.3
